From patent publication US20260014278A1, “HYBRID PEPTIDE DENDRIMER SYSTEMS AND EXTRAHEPATIC DELIVERY” (NUNTIUS THERAPEUTICS LIMITED, priority 2022, published 2026)

Tested on: Mouse muscle cells (C2c12)
Test: eGFP expression (RFU/mg) in C2c12 muscle cells, muscle-targeting dendrimers
Type: cell-based
Conditions: N:P=0.6:1, DOTMA:DOPE w/w 10:1, 24 hours post-transfection; FIG. 9
Description: Cell lines, transfection reagents and mRNA. C2c12 cells were maintained in DMEM medium with 10% (v/v) FCS and 1% (v/v) L-glutamine in a humidified atmosphere in 5% CO2, and 37° C. The Alexa Fluor 488 tagged mRNA, expressing an eGFP, was purchased from RiboPro. The mRNA either expressing an eGFP or firefly luciferase was purchased from Trilink. DOTMA:DOPE, 1:1 (w/w) were obtained from Invitrogen or Encapsula NanoSciences LLC.
Transfection procedure. 24 hours before transfection, C2c12 cells were seeded in 96well plates in order to reach 70% confluence. mRNA transfection complexes were formed by mixing mRNA with the dendrimers in 25 mM HEPES buffer, then with DOTMA:DOPE in 25 mM HEPES buffer at 25° C. The transfection complexes were then overlaid to the cells in full growth medium. The cells were harvested 4 hours after transfection for FACS analysis or 24 hours post transfection for reporter genes assays.
Two variants (NTX2 and NTX3) of the peptide dendrimer GSCG1,2-RL, 3-LR ((LR)8(KRL)4(KRL)2KGSC-NH2) were made which include the ASSLNIA (SEQ ID NO:1) muscle targeting peptide. Transfection of muscle cells with GSCG1,2-RL, 3-LR, NTX2 ((LR)8(KRL)4(KRL)2[…](Acp)-NH2) or NTX3 ((LR)8(KRL)4(KRL)2[…](Acp)-NH2) was performed using eGFP mRNA and transfection efficiency was assayed using either flow cytometry or the transgene expression assay. […]
Transgene expression assay: The cells were washed twice with PBS and incubated with 50 ul of 1× M-PER lysis buffer (Thermo 11874111). […] 40 ul of lysate from each well was transferred to all black 96 well plates for quantification of eGFP relative fluorescence unit (RFU), absorbance at 535 nm, using Molecular devices SpectraMax iD5.
Protein content determination: The protein content of each cell lysate was determined by mixing the lysate (25 μL) with Pierce™ BCA Protein Assay Kit (200 ul, Thermo Scientific). After 30 minutes of 37° C. incubation in at dark, absorbance was measured at 562 nm with Molecular devices SpectraMax iD5 and converted to protein concentration using a BSA standard curve. […]

Substance	increase in eGFP expression compared to GSCG1,2-RL, 3-LR
(LR)8(KRL)4(KRL)2KGSCGAASSLNIA(Acp)-NH2 [NTX2]	two-fold

Same assay, conditions: N:P=0.6:1, DOTMA:DOPE w/w 10:1, 24 hours post-transfection; FIG. 10

Substance	increase in eGFP expression compared to RHCG1-RL, 2-LR
(LR)4(KRL)2KRHCGAASSLNIA-(Acp)-NH2 [NTX5]	˜two-fold

Tested on: not listed separately
Test: Dynamic light scattering: hydrodynamic size and polydispersity index (PDI) of nanoparticles
Type: physicochemical
Conditions: GSCG1,2-RHL N:P 0.6:1, DOTMA/DOPE nanoparticles coated at 2.06:1 (dendrimer to mRNA)
Description: (§1) The hydrodynamic size was measured using the dynamic light scattering (DLS) technique. DLS is a very sensitive, non-invasive method to measure size and size distribution of nanoparticles in a liquid. […] Analysing these intensity fluctuations allows us to calculate the velocity of the Brownian motion. The size of the nanoparticles can be determined by using the Stokes-Einstein relationship. With the latest technology, it can measure nanoparticles smaller than 1 nm.
PDI is used to estimate the average uniformity of a particle solution, The method of cumulants is a standard technique for analysing DLS data on sample polydispersity. PDI is a number calculated from a 2 parameter fit to the correlation data (the cumulants analysis). The cumulants analysis is used to evaluate the autocorrelation function generated by a DLS experiment. The calculation is defined in ISO 13321 and ISO 22412. PDI values greater than 0.7 indicate that the sample has a very broad size distribution and is not suitable for the DLS technique. The calculations for these parameters are defined in the ISO standard document 13321:1996 E and ISO 22412:2008.
as §1, with “Size, zeta potential and polydispersity index (PDI) measurement: The hydrodynamic” for “The hydrodynamic”, “scattering (DLS) technique using the Zetasizer Advance Series—Pro (Malvern Panalytical Ltd, Malvern, UK) according to the manufacturer's instructions. DLS is” for “scattering (DLS) technique. DLS is”
The data obtained with DLS measurements can also be used to calculate the PDI of particle in solution. PDI is used to estimate the average uniformity of a particle solution. The method of cumulants is a standard technique for analysing DLS data on sample polydispersity. PDI is a number calculated from a 2 parameter fit to the correlation data (the cumulants analysis). The cumulants analysis is used to evaluate the autocorrelation function generated by a DLS experiment. The calculation is defined in ISO 13321 and ISO 22412. PDI values greater than 0.7 indicate that the sample has a very broad size distribution and is not suitable for the DLS technique. The calculations for these parameters are defined in the ISO standard document 13321:1996 E and ISO 22412:2008.
To measure the size and PDI, the samples were diluted 16× in 25 mM HEPES buffer (5 μl sample+75 μl buffer). Parameters: reference material: polystyrene latex, dispersant: water, 25° C. The PDI measurements were measured in nanoparticles comprising a dendrimer:nucleic acid NP ratio of 8:1.

Substance	PDI	size [nm]
(Ac-EEEE)2KGSGGSGGSC-NH2	0.12	166

Same assay, conditions: GSCG1,2-RHL N:P 0.6:1, DOTMA/DOPE nanoparticles coated at 2.72:1 (dendrimer to mRNA)

Substance	PDI	size [nm]
(Ac-EEEE)2KGSGGSGGSC-NH2	0.13	169

Same assay, conditions: GSCG1,2-RHL N:P 0.6:1, DOTMA:DOPE nanoparticles; coating mol ratio 2.06 to mRNA P where coated

Substance	Pdl	Z-average diameter [nm]
(Ac-EEEE)2KGSGGSGGSACDCRGDCFCG-NH2 (Disulfide bridges: C1-C4, C2-C3)	0.20	191
(Ac-EEEE)2KGSGGSGGSC-NH2	0.16	165

Same assay, conditions: Table 7, first generation dendrimers for mixed dendrimer nanoparticles

Substance	PDI
(RLR)2KRHC-NH2 [RHCG1-RLR]	0.766

Same assay, conditions: peptide dendrimer, lipid and mRNA complexes; N:P 8:1, DOTMA/DOPE w/w 10:1 to mRNA

Substance	Polydispersity Index (PDI)
(BR)8(KRB)4(KRX)2KGSC-NH2 [GSCG1-RX, 2-RB, 3-BR]	0.403
(FR)8(KRQ)4(KRW)2KGSC-NH2 [GSCG1-RW, 2-RQ, 3-FR]	0.452
(HK)8(KKH)4(KKL)2KGSC-NH2 [GSCG1-KL, 2-KH, 3-HK]	0.126
(LR)2KRHC-NH2 [RHCG1-LR]	0.577
(LR)8(DabRL)4(DabRL)2DabGSC-NH2	0.286
(LR)8(KLR)4(KLR)2KGSC-NH2 [GSCG1,2,3-LR]	0.272
(LR)8(KR)4(KRLR)2KRHC-NH2 [RHCG1-RLR, 2-R, 3-LR]	0.439
(LR)8(KR)4(KRLRL)2KRHC-NH2 [RHCG1-RLRL, 2-R, 3-LR]	0.37
(LR)8(KRL)4(KRE)2KGSC-NH2 [GSCG1-RE, 2-RL, 3-LR]	0.158
(LR)8(KRL)4(KRL)2KA-NH2 [AG1,2-RL, 3-LR]	0.184
(LR)8(KRL)4(KRL)2KGSCRHCRFWRYM-NH2 [LinearG1,2-RL, 3-LR]	0.289
(LR)8(KRL)4(KRL)2KRFW-NH2 [RFWG1,2-RL, 3-LR]	0.401
(LR)8(KRL)4(KRL)2KRHC-NH2 [RHCG1,2-RL, 3-LR]	0.363
(LR)8(KRL)4(KRL)2KRYM-NH2 [RYMG1,2-RL, 3-LR]	0.257
(LR)8(KRL)4(KRL)2KYM-NH2 [YMG1,2-RL, 3-LR]	0.213
(LRLR)4(KLRLR)2KGSC-NH2 [GSCG1,2-LRLR]	0.189

Substance	Polydispersity Index (PDI)
(LRLR)8(KLRLR)4(KLRLR)2KGSC-NH2 [GSCG1,2,3-LRLR]	0.287
(MR)8(KRC)4(KRC)2KGSC-NH2 [GSCG1-RC, 2-RC, 3-MR]	0.19
(QR)8(KRT)4(KRY)2KGSC-NH2 [GSCG1-RY, 2-RT, 3-QR]	0.178
(R)4(KR)2KRHC-NH2 [RHCG1,2-R]	0.252
(R)8(KR)4(KR)2KRHC-NH2 [RHCG1,2,3-R]	0.396
(R)8(KRL)4(KRLR)2KRHC-NH2 [RHCG1-RLR, 2-RL, 3-R]	0.429
(RL)8(KLR)4(KLR)2KGSC-NH2 [GSCG1,2-LR, 3-RL]	0.242
(RL)8(KRL)4(KLR)2KGSC-NH2 [GSCG1-LR, 2,3-RL]	0.417
(RLR)4(KRLR)2KRHC-NH2 [RHCG1,2-RLR]	0.214
(RLR)8(KRLR)4(KRLR)2KRHC-NH2 [RHCG1,2,3-RLR]	0.299
(RR)4(KLL)2KGSC-NH2 [GSCG1-LL, 2-RR]	0.087
(WR)8(KRM)4(KRF)2KGSC-NH2 [GSCG1-RF, 2-RM, 3-WR]	0.277
(YR)8(KRT)4(KRQ)2KGSC-NH2 [GSCG1-RQ, 2-RT, 3-YR]	0.409
(lR)8(KrL)4(KRL)2KGSC-NH2 [GSCG1-Rl, 2-rL, 3-lR]	0.241
(lr)8(krl)4(krl)2kgsc-NH2	0.246

Tested on: not listed separately
Test: Zeta potential of nanoparticles (electrophoretic light scattering)
Type: physicochemical
Conditions: GSCG1,2-RHL N:P 0.6:1, DOTMA/DOPE nanoparticles coated at 2.06:1 (dendrimer to mRNA)
Text: Zeta potential is a measurement of the magnitude of the electrostatic or charge repulsion/attraction between particles. This can be determined by analysing particle mobility and charge (Zeta potential) using the Electrophoretic Light Scattering (ELS) technique.
Zeta potential is a measurement of the magnitude of the electrostatic or charge repulsion/attraction between particles. This can be determined by analysing particle mobility and charge (Zeta potential) using the Electrophoretic Light Scattering (ELS) technique. […] Parameters: reference material: polystyrene latex, dispersant: water, 25° C. The measurements of the zeta potential were carried out using the Zetasizer Advance Series—Pro (Malvern Panalytical Ltd, Malvern, UK) according to the manufacturer's instructions.

Substance	zeta potential [mV]
(Ac-EEEE)2KGSGGSGGSC-NH2	~33.2

Same assay, conditions: GSCG1,2-RHL N:P 0.6:1, DOTMA/DOPE nanoparticles coated at 2.72:1 (dendrimer to mRNA)

Substance	zeta potential [mV]
(Ac-EEEE)2KGSGGSGGSC-NH2	~35.4

Same assay, conditions: GSCG1,2-RHL N:P 0.6:1, DOTMA:DOPE nanoparticles; coating mol ratio 2.06 to mRNA P where coated

Substance	zeta potential [mV]
(Ac-EEEE)2KGSGGSGGSACDCRGDCFCG-NH2 (Disulfide bridges: C1-C4, C2-C3)	−31.9
(Ac-EEEE)2KGSGGSGGSC-NH2	−29.3
